According to US9615577B2, “Herbicidally active cyclic dione compounds, or derivatives therefor, substituted by a phenyl which has an alkynyl-containing substituent” (Syngenta Limited, priority 2012, dated 2017):

Tests used:
Type in all cases: in vivo
[1] = test system: Alopecurus myosuroides (ALOMY); experiment: Test 1A glasshouse assay for herbicidal activity, pre-emergence; conditions: 312 h, 250 g/ha, evaluated after 13 days, read-out: percentage phytotoxicity ALOMY
Summary of the method: (§1)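 Pre-em: spray 1 d after sowing; post-em: spray after 8 d cultivation. Formulation in acetone/water (50:50), 0.5% Tween 20. Glasshouse 24/16 °C d/n, 14 h light, 65% humidity. Readout: visual % damage at 13 d.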

[2] = test system: Amaranthus retroflexus (AMARE); experiment: as above; conditions: 312 h, 250 g/ha, evaluated after 13 days, read-out: percentage phytotoxicity AMARE
Summary of the method: as §1

[3] = test system: Echinochloa crus-galli (ECHCG); experiment: as above; conditions: 312 h, 250 g/ha, evaluated after 13 days, read-out: percentage phytotoxicity ECHCG
Summary of the method: as §1

Setaria faberi (SETFA) [4] = experiment: as above; conditions: 312 h, 250 g/ha, evaluated after 13 days, read-out: percentage phytotoxicity SETFA
Summary of the method: as §1

[5] = test system: Abutilon theophasti Medik. (ABUTH); experiment: Test 1A glasshouse assay for herbicidal activity, post-emergence; conditions: 312 h, evaluated after 13 days, read-out: percentage phytotoxicity ABUTH
Summary of the method: as §1

[6] = test system: Alopecurus myosuroides (ALOMY); experiment: as above; conditions: 312 h, evaluated after 13 days, read-out: percentage phytotoxicity ALOMY
Summary of the method: as §1

[7] = test system: Amaranthus retroflexus (AMARE); experiment: as above; conditions: 312 h, evaluated after 13 days, read-out: percentage phytotoxicity AMARE
Summary of the method: as §1

[8] = test system: Echinochloa crus-galli (ECHCG); experiment: as above; conditions: 312 h, evaluated after 13 days, read-out: percentage phytotoxicity ECHCG
Summary of the method: as §1

[9] = test system: Alopecurus myosuroides (ALOMY); experiment: Test 1B glasshouse assay for herbicidal activity, pre-emergence; conditions: 480 h, 20 DAA, read-out: percentage phytotoxicity ALOMY
Experimental: (§2) Seeds of a variety of monocotyledonous and dicotyledonous test plants are sown in standard soil in pots. The plants are cultivated for one day (for pre-emergence) or for about 12 days (range=10-13 days) (for post-emergence) under controlled conditions in a glasshouse (warm climate species at 24/18° C., cool climate species at 20/16° C., both at day/night; 16 hours light; 65% humidity).
(§3) An “instant formulation”, known as the “IF50”, containing 50 g/liter (i.e. 5% w/v) of the “technical” (i.e. unformulated) active ingredient is prepared by dissolving the active ingredient in a mixture of organic solvents and emulsifier, details of which are provided in the Table below. This IF50 is then mixed with a small, variable amount of acetone to aid dissolution, before addition of a 0.2% v/v aqueous solution of the adjuvant X-77 (which is a mixture of alkyl aryl polyoxyethylene glycols and free fatty acids in isopropanol, CAS Registry number 11097-66-8), as the aqueous diluent, to form an aqueous spray solution which contains a predetermined concentration of the active ingredient (which varies depending on the application rate of the active ingredient to the plants) and 0.2% v/v of the adjuvant X-77. This aqueous spray solution is then sprayed onto the plants, after one day's cultivation (for pre-emergence) or after about 12 days' cultivation (for post-emergence).
(§4) The test plants are then grown on, in a glasshouse (greenhouse) under controlled conditions (at either 24/18° C. or 20/16° C. (day/night) as mentioned above; 16 hours light; 65% humidity) and are watered twice daily. Either 15 days after application of the herbicide (15 DAA) (for post-emergence), or 20 days after application of the herbicide (20 DAA) (for pre-emergence), the test plants are evaluated visually, and an assessed percentage phytotoxicity score is given for each herbicidal application on each plant species (where 100%=total damage to plant; 0%=no damage to plant).
(§5) Cool climate (“cool season”) grassy monocotyledonous weeds: Alopecurus myosuroides (ALOMY), Avena fatua (AVEFA), Lolium perenne (LOLPE).

Avena fatua (AVEFA) = experiment: as above; conditions: 480 h, 20 DAA, read-out: percentage phytotoxicity AVEFA
Experimental: as §2, §3, §4, §5

Lolium perenne (LOLPE) = experiment: as above; conditions: 480 h, 20 DAA, read-out: percentage phytotoxicity LOLPE
Experimental: as §2, §3, §4, §5

[10] = test system: Digitaria sanguinalis (DIGSA); experiment: as above; conditions: 480 h, 20 DAA, read-out: percentage phytotoxicity DIGSA
Experimental: as §2, §3, §4
(§6) Warm climate (“warm season”) grassy monocotyledonous weeds: Setaria faberi (SETFA), SORVU (Sorghum bicolor (L.) Moench ssp. Bicolor, or Sorghum vulgare Pers.), Digitaria sanguinalis (DIGSA), Echinochloa crus-galli (ECHCG), and Brachiaria plantaginea (BRAPL).

[11] = test system: Echinochloa crus-galli (ECHCG); experiment: as above; conditions: 480 h, 20 DAA, read-out: percentage phytotoxicity ECHCG
Experimental: as §2, §3, §4, §6

[12] = test system: SORVU (Sorghum bicolor (L.) Moench ssp. Bicolor, or Sorghum vulgare Pers.); experiment: as above; conditions: 480 h, 20 DAA, read-out: percentage phytotoxicity SORVU
Experimental: as §2, §3, §4, §6

Setaria faberi (SETFA) [13] = experiment: as above; conditions: 480 h, 20 DAA, read-out: percentage phytotoxicity SETFA
Experimental: as §2, §3, §4, §6

[14] = test system: Brachiaria plantaginea (BRAPL); experiment: Test 1B glasshouse assay for herbicidal activity, post-emergence; conditions: Urochloa plantaginea; for pest or weed control at 30 g/ha: 30 g/ha application rate; for pest or weed control at 60 g/ha: 60 g/ha application rate; for pest or weed control at 125 g/ha: 125 g/ha application rate
Summary of the method: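 Seeds sown in standard soil; sprayed after 1 day (pre-emergence) or ~12 days (post-emergence) with active ingredient from a 50 g/liter IF50 formulation diluted in 0.2% v/v X-77 aqueous adjuvant. Glasshouse at 24/18° C. day/night, 16 h light, 65% humidity; visual % phytotoxicity scored 20 DAA (pre) or 15 DAA (post).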

Row | Compound | pest or weed control at 250 g/ha [1] [%] | pest or weed control at 250 g/ha [2] [%] | pest or weed control at 250 g/ha [3] [%] | pest or weed control at 250 g/ha (Setaria faberi (SETFA) [4]) [%] | pest or weed control at 30 g/ha [5] [%] | pest or weed control at 250 g/ha [5] [%] | pest or weed control at 30 g/ha [6] [%] | pest or weed control at 250 g/ha [6] [%] | pest or weed control at 250 g/ha [7] [%] | pest or weed control at 250 g/ha [8] [%] | pest or weed control at 500 g/ha [9] [%] | pest or weed control at 500 g/ha (Avena fatua (AVEFA)) [%] | pest or weed control at 500 g/ha (Lolium perenne (LOLPE)) [%] | pest or weed control at 500 g/ha [10] [%] | pest or weed control at 500 g/ha [11] [%] | pest or weed control at 500 g/ha [12] [%] | pest or weed control at 500 g/ha (Setaria faberi (SETFA) [13]) [%] | pest or weed control at 30 g/ha [14] [%] | pest or weed control at 60 g/ha [14] [%] | pest or weed control at 125 g/ha [14] [%] | also measured
1 | CC#Cc1cc(C)c(C2C(=O)C3CCC(C3)C2=O)c(C)c1 (stereo not drawn) [Compound A-5] | 100 | 0 | 100 | 90 | 0 | 60 | 80 | 100 | 0 | 100 | 80 | 40 | 100 | 100 | 100 | 90 | 90 | 90 | 100 | 100 | pest or weed control at 30 g/ha [7]: 10%; pest or weed control at 30 g/ha [8]: 100%; pest or weed control at 500 g/ha ([14]; 500 g/ha application rate): 100%
2 | CC#Cc1cc(C)c(C2=C(OC(C)=O)CC(c3ccccn3)CC2=O)c(C)c1 (stereo not drawn) [Compound A-15] | 100 | 40 | 100 | 100 | 20 | 80 | 90 | 100 | 60 | 100 | – | – | – | – | – | – | – | 100 | – | 100 | pest or weed control at 30 g/ha [7]: 0%; pest or weed control at 30 g/ha [8]: 100%; pest or weed control at 125 g/ha [9]: 80%; pest or weed control at 125 g/ha (Avena fatua (AVEFA)): 50%; pest or weed control at 125 g/ha (Lolium perenne (LOLPE)): 90%; pest or weed control at 125 g/ha [10]: 100%; pest or weed control at 125 g/ha [11]: 80%; pest or weed control at 125 g/ha [12]: 80%; pest or weed control at 125 g/ha (Setaria faberi (SETFA) [13]): 80%
3 | CC#Cc1ccc(C2C(=O)C3CCC(C3)C2=O)c(C)c1 (single isomer, unassigned) [Compound A-2] | 90 | 0 | 100 | 70 | – | – | – | 90 | 0 | 100 | 100 | 80 | 100 | 100 | 100 | 80 | 90 | – | 100 | – | –
4 | CC#Cc1cc(C)c(C2=C(OC(=O)OC)CC(c3ccccn3)CC2=O)c(C)c1 (stereo not drawn) [Compound A-14] | 100 | 70 | 100 | 100 | – | 80 | – | 100 | 20 | 100 | – | – | – | – | – | – | – | 70 | – | 100 | pest or weed control at 250 g/ha ([9]; 250 g/ha): 80%; pest or weed control at 250 g/ha (Avena fatua (AVEFA); 250 g/ha): 70%; pest or weed control at 250 g/ha (Lolium perenne (LOLPE); 250 g/ha): 100%; pest or weed control at 250 g/ha ([10]; 250 g/ha): 100%; pest or weed control at 250 g/ha ([11]; 250 g/ha): 80%; pest or weed control at 250 g/ha ([12]; 250 g/ha): 80%; pest or weed control at 250 g/ha (Setaria faberi (SETFA) [13]; 250 g/ha): 90%
5 | CC#Cc1cc(C)c(C2C(=O)C3CCC(C3)C2=O)c(OC)c1 (stereo not drawn) [Compound A-10] | 100 | 0 | 100 | 100 | – | 80 | – | 100 | 50 | 100 | – | – | – | – | – | – | – | 90 | – | 100 | pest or weed control at 125 g/ha [9]: 80%; pest or weed control at 125 g/ha (Avena fatua (AVEFA)): 60%; pest or weed control at 125 g/ha (Lolium perenne (LOLPE)): 100%; pest or weed control at 125 g/ha [10]: 90%; pest or weed control at 125 g/ha [11]: 90%; pest or weed control at 125 g/ha [12]: 80%; pest or weed control at 125 g/ha (Setaria faberi (SETFA) [13]): 80%
6 | CC#Cc1ccc(C2C(=O)C(C)(C)OC(C)(C)C2=O)c(C)c1 [Compound A-1] | 90 | 0 | 80 | 90 | – | – | – | 90 | 10 | 100 | 70 | 10 | 100 | 60 | 100 | 60 | 50 | – | 90 | – | –
